The target in experiment [1] is T1, Avi-KRAS G12R (1-169) GppNHp/RAF1 RBD-3xFLAG (52-151) (Homo sapiens, UniProt P01116, G12R).
T1 construct: Avi-KRAS G12R (1-169)
Nature of the experiment: Raf1-KRAS G12R-GppNHP disruption HTRF assay (Biological Example 1). In kind it is binding. As to conditions: KRAS G12R, GppNHp-loaded. The gist of the method:
(§1)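 HTRF PPI disruption; buffer 50 mM Tris pH 7.5, 100 mM NaCl, 5 mM MgCl2, 0.1% BSA, 0.01% Tween, 10% DMSO. Protein mix 1 h RT shaking, reagent mix 1 h RT shaking. Data as % activity vs DMSO (100%).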
On the technique in general: TR-FRET usually uses a lanthanide donor and a delayed reading to cut background.

Experiment [2] has as its target T2, Avi-KRAS G12D (1-169) GppNHp/RAF1 RBD-3xFLAG (52-151) (Homo sapiens, UniProt P01116, G12D).
T2 construct: Avi-KRAS G12D (1-169)
Nature of the experiment: Raf1-KRAS G12D-GppNHP disruption HTRF assay (Biological Example 1). As to conditions: KRAS G12D, GppNHp-loaded. In kind it is binding. In a few lines: as §1

Experiment [3] deals with T3, Avi-KRAS G12V (2-169) GTP/RAF1 RBD-3xFLAG (51-131) (Homo sapiens, UniProt P01116, G12V).
T3 construct: Avi-KRAS G12V (2-169)
T3 sequence (P01116 2-169 isoform P01116-2 G12V): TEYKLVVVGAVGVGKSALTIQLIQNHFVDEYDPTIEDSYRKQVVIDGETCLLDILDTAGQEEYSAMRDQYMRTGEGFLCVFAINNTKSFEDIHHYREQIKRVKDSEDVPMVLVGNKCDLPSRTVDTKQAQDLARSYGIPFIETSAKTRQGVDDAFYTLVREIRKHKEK
Briefly: Raf1-KRAS G12V-GTP disruption HTRF assay (Biological Example 3). The settings on record: KRAS G12V, GTP-loaded. In kind it is binding. In a few lines:
(§2)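 An HTRF assay measured disruption of 50 nM Avi-KRAS (2-169)-GTP (WT, G12C, G12D or G12V) bound to RAF1 RBD-3xFLAG (51-131). Buffer was Tris pH 7.5 with 5 mM MgCl2 and 10% DMSO. Compounds (30–0.005 μM, 3-fold, 10 points) were incubated 1 h at room temperature, and activity is given as % of DMSO.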

The target in experiment [4] is T4, Avi-KRAS G12V (1-169) GppNHp/RAF1 RBD-3xFLAG (52-151) (Homo sapiens, UniProt P01116, G12V).
T4 construct: Avi-KRAS G12V (1-169)
T4 sequence (P01116 1-169 isoform P01116-2 G12V): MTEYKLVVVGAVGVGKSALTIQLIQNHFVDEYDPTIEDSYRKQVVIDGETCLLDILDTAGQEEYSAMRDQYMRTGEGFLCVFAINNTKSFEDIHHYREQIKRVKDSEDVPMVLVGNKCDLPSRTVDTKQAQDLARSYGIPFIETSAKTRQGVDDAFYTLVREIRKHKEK
Nature of the experiment: Raf1-KRAS G12V-GppNHP disruption HTRF assay (Biological Example 1). In kind it is binding. As to conditions: KRAS G12V, GppNHp-loaded. The gist of the method:
as §1

In the next experiment the test system is SW620 cells (KRAS G12V). Nature of the experiment: Cell-based pERK HTRF assay in SW620 cell (Biological Example 4). The gist of the method: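 Read-out: HTRF pERK signal (excitation 320 nm, emission 615 nm) from lysates of SW620 cells after 4 h compound exposure. Dose range was 9 points, half-log steps from 1 μM, in 0.25% DMSO; antibody incubation ran 4–24 h at room temperature.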

Experiment [5] addresses T5, Avi-KRAS WT (1-169) GppNHp/RAF1 RBD-3xFLAG (52-151) (Homo sapiens, UniProt P01116).
T5 construct: Avi-KRAS WT (1-169)
Nature of the experiment: Raf1-KRAS WT-GppNHP disruption HTRF assay (Biological Example 1). The settings on record: KRAS WT, GppNHp-loaded. In kind it is binding. The gist of the method:
as §1

Experiment [6] has as its target T6, Avi-KRAS WT (2-169) GTP/RAF1 RBD-3xFLAG (51-131) (Homo sapiens, UniProt P01116).
T6 construct: Avi-KRAS WT (2-169)
Briefly: Raf1-KRAS WT-GTP disruption HTRF assay (Biological Example 3). In kind it is binding. The settings on record: KRAS WT, GTP-loaded. The gist of the method: as §2

Where [7] appears, read: Homo sapiens, SW-620, SW620 (KRAS G12V) cells.
Setting [8] is: Homo sapiens, SW-620, SW620 (KRAS G12V) cells, pERK HTRF, class symbols.

T6 sequence (P01116 2-169 isoform P01116-2): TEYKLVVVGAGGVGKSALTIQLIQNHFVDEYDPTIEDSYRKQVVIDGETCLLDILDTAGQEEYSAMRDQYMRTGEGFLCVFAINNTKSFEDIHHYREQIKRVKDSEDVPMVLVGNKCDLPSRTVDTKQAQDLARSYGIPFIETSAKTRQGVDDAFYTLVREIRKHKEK
T5 sequence (P01116 1-169 isoform P01116-2): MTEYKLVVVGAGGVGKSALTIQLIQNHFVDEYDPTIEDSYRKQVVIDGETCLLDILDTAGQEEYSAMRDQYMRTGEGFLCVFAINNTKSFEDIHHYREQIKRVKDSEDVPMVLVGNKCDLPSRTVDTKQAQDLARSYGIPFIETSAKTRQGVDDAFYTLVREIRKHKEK
T2 sequence (P01116 1-169 isoform P01116-2 G12D): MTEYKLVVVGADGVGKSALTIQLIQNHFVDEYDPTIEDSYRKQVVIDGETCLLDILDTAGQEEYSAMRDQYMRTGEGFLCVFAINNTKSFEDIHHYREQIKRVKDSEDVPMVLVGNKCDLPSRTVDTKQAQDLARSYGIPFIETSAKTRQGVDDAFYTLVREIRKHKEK
T1 sequence (P01116 1-169 isoform P01116-2 G12R): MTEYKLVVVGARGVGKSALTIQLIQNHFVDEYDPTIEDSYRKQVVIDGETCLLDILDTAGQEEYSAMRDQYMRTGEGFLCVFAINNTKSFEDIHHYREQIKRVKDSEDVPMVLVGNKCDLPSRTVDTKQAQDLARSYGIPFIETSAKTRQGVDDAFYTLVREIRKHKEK

Regarding `CCN(c1nc(OC[C@@H]2C[C@@H](OC)CN2C)nc2c(F)c(-c3ccc(F)c4sc(N)c(C#N)c34)c(C(F)(F)F)cc12)[C@H]1CCN(C(=O)C(C)C)C1` [Compound 706], the concentration for half-maximal inhibition (IC50) was 100 to 1000 nM in experiment [1] (class symbols); 100 to 1000 nM in experiment [2] (class symbols); 1000 to 10000 nM in experiment [3]; 100 to 1000 nM in experiment [4] (class symbols); less than 100 nM in the experiment with SW620 cells (KRAS G12V) (setting [7]); less than 100 nM in the experiment with SW620 cells (KRAS G12V) (setting [8]). The IC50 in experiment [5] (class symbols) lay in the range of 100 to 1000 nM; in experiment [6], 1000 to 10000 nM.
`CCN(c1nc(OC[C@@]23CCCN2C[C@H](F)C3)nc2c(F)c(-c3ccc(F)c4sc(N)c(C#N)c34)c(C(F)(F)F)cc12)[C@H]1CCN(C(=O)C2CC2(F)F)C1` (stereo partly shown) [Compound 581]: the IC50 in experiment [1] (class symbols) was less than 100 nM; in experiment [2] (class symbols), less than 100 nM; in experiment [3], no more than 100 nM; in experiment [4] (class symbols), less than 100 nM; in the experiment on SW620 cells (KRAS G12V) (setting [7]), less than 100 nM; in the experiment with SW620 cells (KRAS G12V) (setting [8]), less than 100 nM. The IC50 in experiment [5] (class symbols) was less than 100 nM; in experiment [6] it was 100 to 1000 nM.
For the compound `Cc1c(C(=O)N(C)C)nn2c1CN(c1nc(OC[C@@]34CCCN3C[C@H](F)C4)nc3c(F)c(-c4ccc(F)c5sc(N)c(C#N)c45)c(C(F)(F)F)cc13)CC2` (atropisomer, axis not shown; (aS)) [Compound 590, 5-((S)-7-(2-amino-3-cyano-7-fluorobenzo[b]thiophen-4-yl)-8-fluoro-2-(((2R,7aS)-2-fluorotetrahydro-1H-pyrrolizin-7a(5H)-yl)methoxy)-6-(trifluoromethyl)quinazolin-4-yl)-N,N,3-trimethyl-4,5,6,7-tetrahydropyrazolo[1,5-a]pyrazine-2-carboxamide], the IC50 in experiment [1] (class symbols) is less than 100 nM; in experiment [2] (class symbols) it was less than 100 nM; in experiment [3] it was 100 to 1000 nM; in experiment [4] (class symbols) it was less than 100 nM; in the experiment on SW620 cells (KRAS G12V) (setting [8]) it was less than 100 nM; in the experiment with SW620 cells (KRAS G12V) (SW620 (KRAS G12V) cells), less than 100 nM. For the same compound, the 50% inhibitory concentration (IC50) in experiment [5] (class symbols) is less than 100 nM; in experiment [6], 100 to 1000 nM.
With `CCN(c1nc(OC[C@@]23CCCN2C[C@H](F)C3)nc2c(F)c(-c3ccc(F)c4sc(N)c(C#N)c34)c(C(F)(F)F)cc12)[C@H]1C[C@H](C)N(C(=O)OC)C1` (atropisomer, axis not shown) [Compound 704], the IC50 was less than 100 nM in experiment [1] (class symbols); less than 100 nM in experiment [2] (class symbols); 100 to 1000 nM in experiment [3]; less than 100 nM in experiment [4] (class symbols); less than 100 nM with SW620 cells (KRAS G12V) (setting [7]); less than 100 nM with SW620 cells (KRAS G12V) (setting [8]). In addition, the IC50 in experiment [5] (class symbols) is less than 100 nM; in experiment [6] it was 100 to 1000 nM.
Regarding `CCN(c1nc(OC[C@@]23CCCN2C[C@H](F)C3)nc2c(F)c(-c3ccc(F)c4sc(N)c(C#N)c34)c(C(F)(F)F)cc12)[C@H]1C[C@H](COC)N(C(=O)C2CC2)C1` (atropisomer, axis not shown) [Compound 696], the half-maximal inhibitory concentration (IC50) in experiment [1] (class symbols) is less than 100 nM; in experiment [2] (class symbols) it was less than 100 nM; in experiment [3], 100 to 1000 nM; in experiment [4] (class symbols), less than 100 nM; in the experiment with SW620 cells (KRAS G12V) (setting [7]), less than 100 nM; with SW620 cells (KRAS G12V) (setting [8]), less than 100 nM. Moreover, the 50% inhibitory concentration (IC50) was less than 100 nM in experiment [5] (class symbols) and 100 to 1000 nM in experiment [6].
In the case of `Cc1c(C(=O)N2CCCC2)nn2c1CN(c1nc(OCC34CCCN3CC(F)C4)nc3c(F)c(-c4ccc(F)c5sc(N)c(C#N)c45)c(C(F)(F)F)cc13)CC2` (stereo not shown) [Compound 744], the half-inhibitory concentration (IC50) in experiment [1] (class symbols) is 100 to 1000 nM; in experiment [2] (class symbols) it was 100 to 1000 nM; in experiment [3] it was 100 to 1000 nM; in experiment [4] (class symbols), 100 to 1000 nM; with SW620 cells (KRAS G12V) (setting [7]) it was less than 100 nM; with SW620 cells (KRAS G12V) (setting [8]), less than 100 nM. The 50% inhibitory concentration (IC50) in experiment [5] (class symbols) and in experiment [6] was 100 to 1000 nM throughout.
For the compound `CC(=O)N1CC[C@@H](N(C)c2nc(OC[C@@]34CCCN3C[C@H](F)C4)nc3c(F)c(-c4ccc(F)c5sc(N)c(C#N)c45)c(C(F)(F)F)cc23)[C@H]1C` (single isomer, unassigned) [Compound 193], the IC50 in experiment [1] (Table 11) was less than 100 nM; in experiment [2] (Table 11) it was less than 100 nM; in experiment [3] it was 100 to 1000 nM; in experiment [4] (Table 11) it was less than 100 nM; with SW620 cells (KRAS G12V) (setting [7]), less than 100 nM; in the experiment on SW620 cells (KRAS G12V) (SW620 (KRAS G12V) cells, pERK HTRF) it was less than 100 nM. The results for the IC50 in experiment [5] (Table 11) and in experiment [6] were less than 100 nM and 100 to 1000 nM, respectively.
Regarding `CCN(c1nc(OCC23CCCN2CC(F)C3)nc2c(F)c(-c3ccc(F)c4sc(N)c(C#N)c34)c(C(F)(F)F)cc12)C1CC(C)N(C(=O)C2CC2(F)F)C1` (stereo not shown) [Compound 732], the IC50 is less than 100 nM in experiment [1] (class symbols); less than 100 nM in experiment [2] (class symbols); 100 to 1000 nM in experiment [3]; less than 100 nM in experiment [4] (class symbols); less than 100 nM in the experiment on SW620 cells (KRAS G12V) (SW620 (KRAS G12V) cells); less than 100 nM in the experiment with SW620 cells (KRAS G12V) (SW620 (KRAS G12V) cells, pERK HTRF, class symbols). In addition, the half-maximal inhibitory concentration (IC50) in experiment [5] (class symbols) and in experiment [6] was 100 to 1000 nM throughout.

A word on the IC50: it is the point on the concentration scale where inhibition reaches its midpoint.

The record behind these values is patent publication US20260042764A1, “COMPOSITIONS AND METHODS FOR INHIBITION OF KRAS” (TheRas, Inc., priority 2022, published 2026).
